Activity calls are given as the source filed them. The calls are words filed in the database; no cut-off is given here.
What was measured:
[1] = Half life in cynomolgus monkey at 2 mg/kg, iv; type: ADME, organism-based, Macaca fascicularis; parameters: dose 2 mg/kg, route intravenous; details: in vivo
[2] = AUC (0 to infinity) in cynomolgus monkey at 2 mg/kg, iv; type: ADME, organism-based, Macaca fascicularis; parameters: time infinity, dose 2 mg/kg, route intravenous; details: plasma
[3] = Cmax in cynomolgus monkey at 2 mg/kg, po; type: ADME, organism-based, Macaca fascicularis; parameters: dose 2 mg/kg, route oral; details: in vivo
[4] = molecular target: T1, Mineralocorticoid receptor (Homo sapiens) (UniProt P08235); assay: Antagonist activity at mineralocorticoid receptor at 1 uM by cellular reporter gene assay; type: functional; parameters: scale not given: the % may be the effect or the level left
T1 sequence (whole entry): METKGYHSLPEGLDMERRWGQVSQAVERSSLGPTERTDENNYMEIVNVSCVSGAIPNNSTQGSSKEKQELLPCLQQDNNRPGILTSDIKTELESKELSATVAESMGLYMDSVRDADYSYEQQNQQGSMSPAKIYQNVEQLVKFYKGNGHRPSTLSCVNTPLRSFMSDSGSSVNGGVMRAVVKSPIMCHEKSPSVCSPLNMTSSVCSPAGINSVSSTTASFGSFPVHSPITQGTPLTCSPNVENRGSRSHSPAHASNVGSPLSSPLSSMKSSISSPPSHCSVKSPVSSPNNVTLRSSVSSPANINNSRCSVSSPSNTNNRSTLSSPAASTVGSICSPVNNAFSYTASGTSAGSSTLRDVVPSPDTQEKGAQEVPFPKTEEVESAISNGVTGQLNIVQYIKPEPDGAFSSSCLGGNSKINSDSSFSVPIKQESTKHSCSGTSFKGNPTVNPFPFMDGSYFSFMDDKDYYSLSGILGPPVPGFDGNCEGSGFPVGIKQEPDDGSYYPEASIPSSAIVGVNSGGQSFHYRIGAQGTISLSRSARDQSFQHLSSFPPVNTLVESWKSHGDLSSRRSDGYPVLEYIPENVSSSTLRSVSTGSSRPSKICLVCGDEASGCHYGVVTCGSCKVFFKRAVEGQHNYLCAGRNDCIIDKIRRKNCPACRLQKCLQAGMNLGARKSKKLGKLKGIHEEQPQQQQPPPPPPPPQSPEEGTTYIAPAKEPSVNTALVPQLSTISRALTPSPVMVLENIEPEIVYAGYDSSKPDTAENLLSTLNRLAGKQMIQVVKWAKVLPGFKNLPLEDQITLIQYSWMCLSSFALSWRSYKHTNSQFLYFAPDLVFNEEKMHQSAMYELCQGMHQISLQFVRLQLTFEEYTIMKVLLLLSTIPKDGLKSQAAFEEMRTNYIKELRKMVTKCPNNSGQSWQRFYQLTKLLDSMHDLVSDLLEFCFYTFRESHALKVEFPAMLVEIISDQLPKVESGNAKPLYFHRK

[5] = AUC (0 to infinity) in rat at 2 mg/kg, po; type: ADME, organism-based; parameters: time infinity, dose 2 mg/kg, route oral; details: plasma
Rhesus monkey = assay: Induction of early menstruation in ovariectomized rhesus monkey menses induction model at 5 mg/kg/day, po; type: functional, organism-based; details: Macaca mulatta
[6] = Clearance in rat at 2 mg/kg, iv; type: ADME, organism-based; parameters: dose 2 mg/kg, route intravenous; details: in vivo
Plasma = assay: Free plasma concentration in ovariectomized rhesus monkey at 5 mg/kg/day, po; type: ADME, organism-based, Macaca mulatta; parameters: route oral; details: in vivo
[7] = Half life in cynomolgus monkey at 2 mg/kg, po; type: ADME, organism-based, Macaca fascicularis; parameters: dose 2 mg/kg, route oral; details: in vivo
[8] = Volume of distribution at steady state in cynomolgus monkey at 2 mg/kg, iv; type: ADME, organism-based, Macaca fascicularis; parameters: dose 2 mg/kg, route intravenous; details: in vivo, read-out: Vdss
[9] = molecular target: T2, Estrogen receptor (Homo sapiens) (UniProt P03372); assay: (§1) Antagonist activity at estrogen receptor by cellular reporter gene assay; type: functional
T2 sequence (whole entry): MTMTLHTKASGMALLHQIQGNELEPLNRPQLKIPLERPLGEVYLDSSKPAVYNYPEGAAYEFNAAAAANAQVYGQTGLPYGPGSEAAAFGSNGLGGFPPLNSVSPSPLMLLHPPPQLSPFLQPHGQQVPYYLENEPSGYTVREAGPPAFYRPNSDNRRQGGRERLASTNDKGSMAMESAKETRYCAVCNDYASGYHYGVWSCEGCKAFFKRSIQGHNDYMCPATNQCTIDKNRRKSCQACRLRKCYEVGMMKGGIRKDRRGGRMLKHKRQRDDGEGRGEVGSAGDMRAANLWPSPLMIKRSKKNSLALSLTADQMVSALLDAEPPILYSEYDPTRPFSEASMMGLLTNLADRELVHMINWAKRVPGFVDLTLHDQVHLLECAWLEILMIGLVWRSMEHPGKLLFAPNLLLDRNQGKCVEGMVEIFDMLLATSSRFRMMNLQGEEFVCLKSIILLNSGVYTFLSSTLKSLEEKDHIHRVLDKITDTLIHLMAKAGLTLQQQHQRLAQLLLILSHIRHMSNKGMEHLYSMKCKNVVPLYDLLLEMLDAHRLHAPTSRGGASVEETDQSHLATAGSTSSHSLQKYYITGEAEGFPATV

[10] = Cmax in rat at 2 mg/kg, po; type: ADME, organism-based; parameters: dose 2 mg/kg, route oral; details: in vivo
Estrogen receptor = molecular target: T3, Estrogen receptor (Homo sapiens, UniProt P03372); assay: as §1; type: functional
T3 sequence (P03372 whole entry): T2 sequence (whole entry)

Structure (SMILES)	half-life [1] [h]	AUC(0-inf) [2] [ng·h/mL]	Cmax [3] [ng/mL]	Activity [4] [%]	AUC(0-inf) [5] [ng·h/mL]	Activity (Rhesus monkey)	clearance [6] [mL/min/kg]	Cp(f) (Plasma) [nM]	half-life [7] [h]	Vd [8] [L/kg]	Activity [9]	Cmax [10] [ng/mL]	IC50 (Estrogen receptor) [nM]
CCS(=O)(=O)Nc1cc(F)c(-c2ccc(C#N)n2C)c(F)c1	2.8	18000	5100	60	15200	Active	2.6	11	2.7	0.3	inactive	2800	
COC[C@]1(OC)CC[C@H]2[C@@H]3CCC4=CC(=O)CCC4=C3[C@@H](c3ccc(/C=N/O)cc3)C[C@@]21C [ASOPRISNIL]													2000

Source: ChEMBL document CHEMBL2203135, “Novel progesterone receptor modulators: 4-aryl-phenylsulfonamides” (Bioorg Med Chem Lett, 2012)
